According to patent US20130130306A1, “ZN (II) BASED COLORIMETRIC SENSOR AND PROCESS FOR THE PREPARATION THEREOF” (COUNCIL OF SCIENTIFIC & INDUSTRIAL RESEARCH, priority 2010, published 2013):
Several values for one entry are separate records, joined by “and”; a condition that tells them apart may be missing. Equal entries are not always repeated.

Experiments:
[1] = UV-vis spectral response and spectrophotometric titration with ATP; type: binding; details: for binding constant for the formation of the complex L.Zn-ATP: spectrophotometric titration, pH 7.2, 10 mM HEPES, 25° C.
Protocol: (§1) In order to examine the binding behaviour of the Zn-complex (L.Zn) (Scheme 1, Formula 1A) to various important anions (like ATP, CTP, ADP, AMP, PPi, H2PO4^−, SO4^2−, CH3CO2^−, I^−, Br^−, Cl^− and F^−) the following experiment was conducted. A solution (˜21 mM) for of sodium salts of ATP, CTP, ADP, AMP, PPi, H2PO4^−, SO4^−, CH3CO2^−, I^−, Br^−, Cl^−, and F^− were prepared using respective salt in 10 mM HEPES buffer solutions (pH 7.2) and was stored for use. Further, a solution (44.35 μM) of the compound L.Zn (Scheme 1, Formula 1A) was prepared using doubly-distilled and deionized water and stored. These stored solutions were used on the day of preparation of the solution for experiment.
A test solution was used after 1 mL of a probe storage solution (the previously prepared and stored solution of 44.35 μM for the compound (L.Zn) (Scheme 1, Formula 1A of the present invention) was put in a 10 mL test tube, such that the final concentration of the probe storage solution was 8.87 μM. To this 4 mL of each of the previous prepared and stored solutions of ATP and other anions (CTP, ADP, AMP, PPi, H2PO4^−, SO4^2−, CH3CO2^−, I^−, Br^−, Cl^− and F^−) was added to the test tube such that the aliquot of each of the solutions was (17 mM). Then the resultant solution was used for UV-vis spectral measurement after appropriate base line correction using a double beam spectrophotometer (Shimadzu UV-3101 PC) and the results thereof are shown in FIG. 1.
Thus a red shift of 40 nm was observed on addition of the solution of ATP (˜1920 equiv.) to the solution of L.Zn (Scheme 1, Formula 1A). […]
A solution of L.Zn (Scheme 1, Formula 1A) (8.87 μM) in aqueous medium was treated with excess amount of ˜500 μM of different phosphate anions like H2PO4^−, PPi, AMP, ADP, ATP and CTP. […] Thus L.Zn (Scheme 1, Formula 1A) can bind ATP selectively among various phosphate anions and the color change associated with the binding of ATP can be detected through naked eye (FIG. 2). […]
A 1.0 mL of stored solution of L.Zn (Scheme 1, Formula 1A) ([L.Zn]=47.3 μM) was put in a test-tube, such that, the final concentration of the L.Zn solution was 9.46 μM. To this varying amount of ATP (0.1-4 mL of the stored ATP solution (21.6 mM) was added. Resulting solution was then diluted by addition of a 10 mM HEPES buffer solution (pH 7.2) maintaining total volume of the resultant aliquot of 5 mL, which was used for spectrophotometric measurements using a double beam spectrophotometer and quartz spectrophotometric cell (3.5 mL capacity). The total spectral change was measured using a double beam spectrophotometer (Shimadzu UV-3101 PC) after appropriate base line correction. Slit width for all experiments during this titration was kept unchanged at 0.2 nm and the results thereof are shown in FIG. 3. […]

[2] = UV-vis spectral response and spectrophotometric titration with CTP; type: binding
Protocol: as §1, with “experiment. […]” for “experiment.”
A solution of L.Zn (Scheme 1, Formula 1A) (8.87 μM) in aqueous medium was treated with excess amount of ˜500 μM of different phosphate anions like H2PO4^−, PPi, AMP, ADP, ATP and CTP. […] Thus L.Zn (Scheme 1, Formula 1A) can bind ATP selectively among various phosphate anions and the color change associated with the binding of ATP can be detected through naked eye (FIG. 2).
A 1.0 mL of stored solution L.Zn (Scheme 1, Formula 1A) ([L.Zn]=8.95 μM) was put in a test-tube, such that, the final concentration of the L.Zn solution was 1.79 μM to this varying amount of CTP (0.1-4 mL of the stored CTP solution (12.71 mM) was added. Resulting solution was then diluted by addition of a 10 mM HEPES buffer solution (N-(2-hydroxyethyl)-piperazine-N′-2-ethanesulfonic acid) (pH 7.2) maintaining total volume of the resultant aliquot of 5 mL, which was used for spectrophotometric measurements by putting a quartz spectrophotometric cell (3.5 mL capacity). The total spectral change was measured using a spectrophotometer (Shimadzu UV-3101 PC) after appropriate base line correction. […]

[3] = Absorption and 31P NMR study of binding to various anions
Protocol: as §1, with “experiment. […]” for “experiment.”

[4] = L.Zn 8.87 μM in aqueous medium, ~500 μM anion

SMILES: CN(C)c1ccc(N=Nc2ccc(S(=O)(=O)N3CCCNCCNCCCNCC3)cc2)cc1.O=[N+]([O-])[O-].O=[N+]([O-])[O-].[Zn+2] [L.Zn]
- color change on addition of ATP (naked eye) [1, 4]: significant color change
- shift of absorption maxima on binding to ATP ([1]; from 463 nm to 503 nm, pH 7.2, ~1920 equiv. ATP): 40 nm
- binding constant for the formation of the complex L.Zn-ATP [1]: 978 ± 15 M⁻¹ and 978 ± 4 M⁻¹
- binding constant for the formation of the complex L.Zn-ATP ([1]; listed as compound of formula 1A): 978 ± 4 M⁻¹
- color change on addition of CTP (naked eye) [2, 4]: Slight color change
- red shift of absorption on addition of CTP ([2]; pH 7.2, L.Zn 8.87 μM, anion 17 mM): 9 nm
- binding constant for the formation of the complex L.Zn-CTP ([2]; spectrophotometric titration, pH 7.2, 10 mM HEPES, 25° C.): 220 (±+15) M^−1
- observed binding preference / trend in binding affinity ([3]; 31P NMR and spectral data): ATP>>CTP>ADP>>AMP
- change of absorption spectrum on addition of other anions ([3]; 2000 equivalents of other anions, pH 7.2): no change was observed
